The subject of one test is basal cell carcinoma. Kind of test: Basal cell carcinoma in K14-CreER; Ptch1fl/fl; p53fl/fl mice treated with GDC-0449. The class given is in vivo. Here is the method:
Harvested skin from treated animals was processed for Hematoxylin and Eosin (H&E) staining using established protocols. Alternatively, backskin from treated animals was fixed over night in 4% paraformaldehyde/PBS solution, washed, incubated in 30% sucrose/PBS solution overnight, and embedded in frozen OCT. Sections were then cut at 8 um from the frozen blocks and stained for the apoptosis marker cleaved caspase 3 (1:1000), GFP (1:1000), or Keratin 5 (1:1000). Sections were counterstained with DAPI.

The subject of test [1] is Superficial Basal Cell Carcinoma (BCC). Kind of test: DT cell ablation in Superficial Basal Cell Carcinoma (BCC), K14CreER/+; p53loxP/loxP; PtchloxP/loxP; LGR5DTReGFP/+ mice; H&E and immunofluorescent staining. Format: in vivo. As to conditions: 75 mg/kg GDC-0449 po BID for 38 days with Diphtheria Toxin 50 ug/kg every other day for the final 8 days, Lgr5DTR.EGFP mice (FIG. 4 A-B). Here is the method:
K14^CreER/+; p53^loxP/loxP; Ptch^loxP/loxP; LGR5^DTReGFP/+ mice were generated by breeding p53^loxP/loxPPtch^loxP/loxP; LGR5^DTReGFP/+ mice with p53^loxP/loxP; Ptch^loxP/+; K14^CreER/−. Animals showing telltale signs of Superficial BCC disease such as loss of fur, scruffy coat, thickening of the ears or tail skin were put on study. Animals were typically placed on study at 7 weeks of age. K14^CreER/+; p53^loxP/loxP; Ptch^loxP/loxP; LGR5^DTReGFP/+ mice were treated with the regimes as follows. To test the effects of DT treatments on residual superficial BCC, mice were treated Vismodegib (GDC-0449) po bid at 75 mg/kg for 38 days with concomitant with Diphtheria Toxin (DT) at 50 ug/kg every other day for the final 8 days starting at […]. Control mice were treated with Vismodegib (GDC-0449) po bid at 75 mg/kg for 38 days concomitant with 200 uL IP saline for the final 8 days of treatment. In addition, animals showing signs of disease (listed above) were treated with saline or DT alone at 50 ug/kg every other day for 5 days to test the effect of single DT treatments.
Harvested skin from treated animals was processed for Hematoxylin and Eosin (H&E) staining using established protocols. Alternatively, backskin from treated animals was fixed over night in 4% paraformaldehyde/PBS solution, washed, incubated in 30% sucrose/PBS solution overnight, and embedded in frozen OCT. […]

The source of these data is patent US10246515B2, “Methods of treating hedgehog-related diseases with an anti-LGR5 antibody” (Genentech, Inc., priority 2013, dated 2019).

Regarding `CS(=O)(=O)c1ccc(C(=O)Nc2ccc(Cl)c(-c3ccccn3)c2)c(Cl)c1` [GDC-0449, 2-chloro-N-[4-chloro-3-(pyridin-2-yl)phenyl]-4-(methylsulfonyl)benzamide], the tumor regression entry in the test with basal cell carcinoma (K14-CreER, Ptch1fl/fl, p53fl/fl mice, compared to untreated control mice (FIG. 2)) was “extensive tumor regression”; in test [1], “tumor regression”. The residual disease entry in the test on basal cell carcinoma (after 75 mg/kg GDC-0449 po BID for 56 days (FIG. 2 C-D)) is on record as “still observed”.
